Data published in patent US11352350B2, “IRAK degraders and uses thereof” (Kymera Therapeutics, Inc., priority 2018, dated 2022).

Assays:
IRAK4 [1] = target: T1, IRAK4 (Homo sapiens (Human), UniProt Q9NWZ3); test: IRAK4 MSD degradation in OCI-LY10; assay type: cell-based; details: MSD
Procedure, shortened: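 OCI-LY10 cells treated with 8-point 1:3 dilutions (top 1 to 10 μM final) for 4 to 24 h at 37° C. Lysate IRAK4 measured by MSD sandwich immunoassay (2H9 capture, Y279 detection, SULFO-TAG anti-rabbit). DC50 from three-parameter logistic fit.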

OCI-LY10 = test: CTG Cell Viability Assay - OCI-LY10; assay type: cell-based, human; details: Homo sapiens, OCI-Ly10, 96 h, OCI-LY10, 4 days; read-out: CTG Cell Viability Assay - OCI-LY10: Average external-IC50
Procedure, shortened: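 OCI-LY10 cells exposed to 9-dose, 1:3 dilutions from 10 μM top (0.2% DMSO) for 4 days at 37° C, 5% CO2. Viability by CellTiter-Glo luminescence; IC50 from three-parameter logistic fit.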

TNFα [2] = test: Human PBMC LPS TNFα assay; assay type: cell-based; details: hPBMC, LPS stimulation, read-out: IRAK4 hPBMC LPS TNF-α inhibition: Average external-IC50
Description: Human PBMC LPS TNFα assay. Frozen PBMCs were thawed into RPMI with 10% FBS/1% penicillin/streptomycin and same day plated into 96 well plates at 200,000 PBMC/[…] media per well. Compound plates were prepared in DMSO with D300 cassette as 8-point dose curves in duplicate, starting dose 2 μM, 5-fold. Compounds are added 200 nL into cells for final 200 μL per well. Compound and cells were incubated at 37° C., 5% CO2 for 20 hours. After twenty hours of pretreatment with the compounds, LPS (01 1 1:B4) (Sigma #L2637) was added at 100 ng/ml final concentration and PBMCs incubated an additional five hours at 37° C., 5% CO2. Following assay completion, PBMC plates were spun down at 2000 rpm for 10 minutes. 100 uL of supernatant was carefully removed and placed into a new 96 well Costar (#3879) plate and stored at −80° C. until further analysis. Meso scale Discovery (MSD) human V-plex assays were used to measure cytokine levels. On day of cytokine analysis, supernatant samples were thawed, diluted with V-plex diluent #2, and directly to MSD plates. Assay was further completed per standard manufacturer's protocol. Cytokine data was normalized to LPS stimulated and unstimulated controls. Prism Graphpad was used to generate IC50 using 4 parameter logistic regression curve, free-fit.

IRAK4 [3] = target: T1, IRAK4; test: IRAK4 degradation in human whole blood monocyte - flow cytometry; assay type: cell-based; details: read-out: IRAK4 degradation in whole blood monocyte-Flow cytometry: Average external Abs IC50
Description: (§1) Human whole blood IRAK4 degradation flow assay. Whole blood was collected in heparinized tubes and plated on the same day as draw (day 0). Whole blood was aliquoted into deep well plates. Compound plates were prepared and a 10 point, 5-fold dilution was performed with a final DMSO concentration of 0.1%. Compound was added to whole blood deep well plate, sealed and incubated at 37° C., 5% CO2 for 20 hours (for 4 hour treatment, compounds were prepared and added the following day). Following the treatment incubation period (day 1), BD lyse fix (BD #558049) was added to the whole blood plate, placed on plate shaker for 30 seconds and incubated for 10 mins at room temperature. Whole blood was then spun down and washed two times with PBS/0.5% BSA, aspirated to pellet and placed into −80° C. freezer until further processing for flow. On the flow run day, whole blood plates were thawed and samples were transferred to PCR plates. The pre-perm staining cocktail (CD3 Ax488/CD8 BUV805/CD14 BUV395/CD16/56 BV711/CD19 BV785) was added to samples and incubated for 30 minutes at room temperature. Samples were washed two times and permeabilized with Methanol for 10 minutes at 4° C. Samples were washed two times and the post-perm staining cocktail (CD4 PE/IRAK4 Ax647 BD #560315) was added and incubated for 30 minutes at room temperature. Samples were washed two times with PBS/BSA and run on a BD LSRFortessa. Mononuclear cells are gated by SSCH/FSCH and single cells. Monocytes are then gated through CD14 positive gate and lymphocytes are gated through CD14 negative gate. To determine absolute DC50 and max degradation values, MFI values were normalized to DMSO max and 20 hour 10 μM min control. Twenty hour dose curves were calculated using a 4 parameter logistic regression curve fit, no constraints (Top doses were removed if hook effects were observed and the bottom was constrained to 0).

IRAK4 [4] = target: T1, IRAK4; test: IRAK4 degradation in human whole blood lymphocyte - flow cytometry; assay type: cell-based; details: read-out: IRAK4 degradation in whole blood lymphocyte-Flow cytometry: Average external Abs IC50
Description: as §1

TNFα [5] = test: Human whole blood LPS TNFα assay; assay type: cell-based; details: 20 h pretreatment, LPS 5 h, read-out: IRAK4 human whole blood LPS TNFa inhibition: Average external-IC50
Description: Human Whole blood LPS TNFα assay. Whole blood was collected fresh and plated same day into 96 well plates at 180 μL per well. Compound plates were prepared in DMSO as 8-point dose curves in duplicate, starting dose 2 μM, 5-fold. Compounds are added 20 μL into blood for final 200 μL per well. Compound and cells were incubated at 37° C., 5% CO2 for 20 hours. After twenty hours of pretreatment with the compounds, LPS (01 1 1:B4) (Sigma #L2637) was added at 100 ng/ml final concentration and blood incubated an additional five hours at 37° C., 5% CO2. Following assay completion, whole blood plates were spun down at 2000 rpm for 15 minutes at 4° C. 50 μL of plasma was carefully removed and placed into a new 96 well Costar (#3879) plate and stored at −80° C. until further analysis. Meso scale Discovery (MSD) human V-plex assays were used to measure cytokine levels. On day of cytokine analysis, plasma samples were thawed, diluted with V-plex diluent #2, and directly to MSD plates. Assay was further completed per standard manufacturer's protocol. Cytokine data was normalized to LPS stimulated and unstimulated controls. Prism Graphpad was used to generate IC50 using 4 parameter logistic regression curve, free-fit.

[6] = OCI-LY10, 4 hrs, read-out: IRAK4 MSD degradation in OCI-LY10 at 4 hrs: Average external-Abs DC50

T1 sequence (Q9NWZ3 whole entry): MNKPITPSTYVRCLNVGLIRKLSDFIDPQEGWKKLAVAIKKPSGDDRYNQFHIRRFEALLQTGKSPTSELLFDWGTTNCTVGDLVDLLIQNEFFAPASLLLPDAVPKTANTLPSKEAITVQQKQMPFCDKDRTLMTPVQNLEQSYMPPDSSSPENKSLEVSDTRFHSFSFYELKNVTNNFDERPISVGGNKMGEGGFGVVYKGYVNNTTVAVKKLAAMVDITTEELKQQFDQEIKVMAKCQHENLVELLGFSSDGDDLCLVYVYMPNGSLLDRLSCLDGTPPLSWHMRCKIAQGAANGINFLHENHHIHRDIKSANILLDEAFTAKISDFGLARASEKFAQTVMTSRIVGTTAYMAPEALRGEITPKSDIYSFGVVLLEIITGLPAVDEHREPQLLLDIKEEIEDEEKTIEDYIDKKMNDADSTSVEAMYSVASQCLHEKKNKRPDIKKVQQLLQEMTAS

| Compound | DC50 (IRAK4 [1]; [6]) [µM] | IC50 (OCI-LY10) [µM] | IC50 (TNFα [2]) [µM] | IC50 (IRAK4 [3]) [µM] | DC50 (IRAK4 [4]) [µM] | IC50 (TNFα [5]) [µM] | DC50 (IRAK4 [3]) [µM] | DC50 (IRAK4 [1]; OCI-LY10, 24 hrs, read-out: IRAK4 MSD degradation in OCI-LY10 at 24 hrs: Average external-Abs DC50) [µM] |
| --- | --- | --- | --- | --- | --- | --- | --- | --- |
| Cn1c(=O)n(C2CCC(=O)NC2=O)c2cccc(CCCOCCOCCNC[C@H]3CC[C@H](n4cc(NC(=O)c5coc(-c6ccnc(NCC7CC7)c6)n5)c(C(F)F)n4)CC3)c21 (stereo partly shown) [I-2] | 0.1 to 1 | 0.1 to 0.5 | 0.1 to 0.5 | < 0.05 | < 0.05 | > 1 |  |  |
| Cn1c(=O)n(C2CCC(=O)NC2=O)c2cccc(CCCOCCNC[C@H]3CC[C@H](n4cc(NC(=O)c5coc(-c6ccnc(NCC(F)(F)F)c6)n5)c(C(N)=O)n4)CC3)c21 (stereo partly shown) [I-11] | < 0.01 | > 1 | < 0.05 | < 0.05 | < 0.05 | > 1 |  |  |
| Cn1c(=O)n(C2CCC(=O)NC2=O)c2ccc(CCCN3CCO[C@@H](CNC[C@H]4CC[C@H](n5cc(NC(=O)c6coc(-c7ccnc(NCC8CC8)c7)n6)c(C(F)F)n5)CC4)C3)cc21 (stereo partly shown) [I-16] | < 0.01 | 0.1 to 0.5 | 0.1 to 0.5 | < 0.05 | 0.05 to 0.1 | > 1 |  |  |
| CN(C[C@@H]1CN(CCCc2ccc3c(c2)n(C)c(=O)n3C2CCC(=O)NC2=O)CCO1)C(=O)[C@H]1CC[C@H](n2cc(NC(=O)c3coc(-c4ccnc(NCC5CC5)c4)n3)c(C(F)F)n2)CC1 (stereo partly shown) [I-17] | < 0.01 | 0.1 to 0.5 | < 0.05 | < 0.05 | 0.05 to 0.1 | 0.5 to 1 |  |  |
| C=C(C)c1nn([C@H]2CC[C@H](C(=O)N(C)CCCOCCCc3cccc4c3n(C)c(=O)n4C3CCC(=O)NC3=O)CC2)cc1NC(=O)c1coc(-c2ccnc(NCC3CC3)c2)n1 (stereo partly shown) [I-31] | 0.1 to 1 | 0.1 to 0.5 | 0.1 to 0.5 |  | 0.1 to 0.5 | > 1 | 0.05 to 0.1 |  |
| CN(CCOCCOCCCc1cccc2c1n(C)c(=O)n2C1CCC(=O)NC1=O)C(=O)[C@H]1CC[C@H](n2cc(NC(=O)c3coc(-c4ccnc(NCC5CC5)c4)n3)c(C(F)F)n2)CC1 (stereo partly shown) [I-32] | < 0.01 | 0.1 to 0.5 | 0.05 to 0.1 | < 0.05 | 0.05 to 0.1 | > 1 |  |  |
| CN(C[C@H]1CN(CCCc2ccc3c(c2)n(C)c(=O)n3C2CCC(=O)NC2=O)CCO1)C[C@H]1CC[C@H](n2cc(NC(=O)c3coc(-c4ccnc(NCC5CC5)c4)n3)c(C(F)F)n2)CC1 (stereo partly shown) [I-34] | < 0.01 | > 1 | 0.1 to 0.5 | < 0.05 | < 0.05 | 0.1 to 0.5 |  |  |
| Cn1c(=O)n(C2CCC(=O)NC2=O)c2ccc(CCCN3CCO[C@H](CNC[C@H]4CC[C@H](n5cc(NC(=O)c6coc(-c7ccnc(NCC8CC8)c7)n6)c(C(F)F)n5)CC4)C3)cc21 (stereo partly shown) [I-35] | 0.01 to 0.1 | < 0.05 | 0.1 to 0.5 | < 0.05 | 0.05 to 0.1 | 0.5 to 1 |  |  |
| CN(C[C@@H]1CN(CCCc2ccc3c(c2)n(C)c(=O)n3C2CCC(=O)NC2=O)CCO1)C[C@H]1CC[C@H](n2cc(NC(=O)c3coc(-c4ccnc(NCC5CC5)c4)n3)c(C(F)F)n2)CC1 (stereo partly shown) [I-36] | 0.01 to 0.1 | 0.5 to 1 | 0.1 to 0.5 | < 0.05 | < 0.05 | 0.1 to 0.5 |  |  |
| Cn1c(=O)n(C2CCC(=O)NC2=O)c2cccc(CCCN3CCO[C@H](CNC[C@H]4CC[C@H](n5cc(NC(=O)c6coc(-c7ccnc(NCC8CC8)c7)n6)c(C(F)F)n5)CC4)C3)c21 (stereo partly shown) [I-37] | 0.01 to 0.1 | < 0.05 | < 0.05 | < 0.05 | < 0.05 | 0.1 to 0.5 |  |  |
| Cn1c(=O)n(C2CCC(=O)NC2=O)c2cccc(CCCN3CCO[C@@H](CNC[C@H]4CC[C@H](n5cc(NC(=O)c6coc(-c7ccnc(NCC8CC8)c7)n6)c(C(F)F)n5)CC4)C3)c21 (stereo partly shown) [I-38] | < 0.01 | < 0.05 | < 0.05 | < 0.05 | 0.05 to 0.1 | 0.1 to 0.5 |  |  |
| O=C1CCC(N2C[C@H](c3cccc(C#CCN4CCO[C@@H](CNC[C@H]5CC[C@H](n6cc(NC(=O)c7coc(-c8ccnc(NCC9CC9)c8)n7)c(C(F)F)n6)CC5)C4)c3)OC2=O)C(=O)N1 (stereo partly shown) [I-39] | 0.01 to 0.1 | 0.05 to 0.1 | 0.05 to 0.1 |  | 0.1 to 0.5 | 0.1 to 0.5 | 0.05 to 0.1 |  |
| CN(CCCOCCCc1cccc2c1n(C)c(=O)n2C1CCC(=O)NC1=O)C[C@H]1CC[C@H](n2cc(NC(=O)c3cccc(C(F)(F)F)n3)c(C(F)F)n2)CC1 (stereo partly shown) [I-44] | > 1 | > 1 | > 1 |  |  | > 1 |  | > 1 |
| O=C1CCC(n2c3cc(CCCOCCOCCNC[C@H]4CC[C@H](n5cc(NC(=O)c6coc(-c7ccnc(NCC8CC8)c7)n6)c(C(F)F)n5)CC4)ccc3c3cccnc32)C(=O)N1 (stereo partly shown) [I-81] | 0.1 to 1 | > 1 | 0.5 to 1 | > 1 | > 1 |  |  |  |
